Results on 31 molecules are retold here after ChEMBL document CHEMBL5042489, “Inhibitors of the Hippo Pathway Kinases STK3/MST2 and STK4/MST1 Have Utility for the Treatment of Acute Myeloid Leukemia” (J Med Chem, 2022).

For series [1], the target named is T1, Serine/threonine-protein kinase 4 (Homo sapiens, UniProt Q13043).
T1 sequence (Q13043 whole entry): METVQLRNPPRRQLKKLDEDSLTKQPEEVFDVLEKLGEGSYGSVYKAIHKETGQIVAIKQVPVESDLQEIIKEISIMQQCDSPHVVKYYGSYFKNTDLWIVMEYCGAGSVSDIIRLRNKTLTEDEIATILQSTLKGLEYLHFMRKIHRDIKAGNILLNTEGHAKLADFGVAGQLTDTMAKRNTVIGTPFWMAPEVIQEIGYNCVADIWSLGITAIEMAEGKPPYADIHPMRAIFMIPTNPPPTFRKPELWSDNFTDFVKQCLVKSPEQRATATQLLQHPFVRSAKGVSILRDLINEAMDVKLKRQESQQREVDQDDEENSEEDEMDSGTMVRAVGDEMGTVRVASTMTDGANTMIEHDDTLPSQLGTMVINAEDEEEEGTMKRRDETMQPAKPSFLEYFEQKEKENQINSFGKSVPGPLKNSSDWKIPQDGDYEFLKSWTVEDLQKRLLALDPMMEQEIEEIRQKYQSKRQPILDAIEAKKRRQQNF

The target of series [2] is T2, Serine/threonine-protein kinase 3 (Homo sapiens, UniProt Q13188).
T2 sequence (Q13188 whole entry): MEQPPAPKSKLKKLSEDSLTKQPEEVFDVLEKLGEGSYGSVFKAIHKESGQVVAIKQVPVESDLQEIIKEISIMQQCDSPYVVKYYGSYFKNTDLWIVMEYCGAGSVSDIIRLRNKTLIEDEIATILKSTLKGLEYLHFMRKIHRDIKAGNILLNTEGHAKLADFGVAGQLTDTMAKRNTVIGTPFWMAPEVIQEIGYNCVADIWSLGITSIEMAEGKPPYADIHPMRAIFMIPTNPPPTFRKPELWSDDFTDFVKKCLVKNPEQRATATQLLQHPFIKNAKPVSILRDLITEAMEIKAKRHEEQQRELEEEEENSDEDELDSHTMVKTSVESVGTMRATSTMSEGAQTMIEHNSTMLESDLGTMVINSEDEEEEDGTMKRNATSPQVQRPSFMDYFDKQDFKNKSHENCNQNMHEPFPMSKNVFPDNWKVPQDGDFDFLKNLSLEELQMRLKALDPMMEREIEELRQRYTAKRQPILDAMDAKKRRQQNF

Series [3] deals with T3, Serine/threonine-protein kinase 3 (Homo sapiens) (UniProt Q13188).
T3 sequence (whole entry): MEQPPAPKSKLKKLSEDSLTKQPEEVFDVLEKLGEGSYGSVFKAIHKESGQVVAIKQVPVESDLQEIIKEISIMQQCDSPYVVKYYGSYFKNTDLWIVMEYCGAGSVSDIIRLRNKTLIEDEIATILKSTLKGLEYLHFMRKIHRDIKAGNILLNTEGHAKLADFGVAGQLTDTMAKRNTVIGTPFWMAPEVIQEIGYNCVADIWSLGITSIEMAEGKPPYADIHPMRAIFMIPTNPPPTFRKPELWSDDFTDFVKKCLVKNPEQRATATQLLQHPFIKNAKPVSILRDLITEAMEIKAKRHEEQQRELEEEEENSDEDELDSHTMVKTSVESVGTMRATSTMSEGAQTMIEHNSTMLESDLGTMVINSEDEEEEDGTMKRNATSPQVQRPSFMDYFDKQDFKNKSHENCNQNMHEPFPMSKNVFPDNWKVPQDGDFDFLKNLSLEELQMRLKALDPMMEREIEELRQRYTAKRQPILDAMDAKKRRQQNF
Description: Inhibition of recombinant N-terminal His6-tagged human STK3 (18 to 311 residues) expressed in Escherichia coli assessed as melting temperature at 20 uM by thermal shift assay.

Series [4] deals with T2, Serine/threonine-protein kinase 3. This is another data set of the same source.
Description: Displacement of K5 tracer from full length C-terminal NanoLuc fused human STK3 expressed in HEK293T cells incubated for 2 hrs by NanoBRET assay
Series [5] addresses T3, Serine/threonine-protein kinase 3 (Homo sapiens). The series is described as follows: Inhibition of STK3 in HEK293 cells assessed as increase in YAP/TAZ-TEAD activity at 10 uM incubated for 48 hrs by Dual-Glo luciferase assay. It is filed as cell-based.
Series [6] has as its target Leucine-rich repeat serine/threonine-protein kinase 2 (Homo sapiens, UniProt Q5S007). The series is described as follows: Displacement of K5 tracer from full length C-terminal NanoLuc fused human LRRK2 expressed in HEK293T cells incubated for 2 hrs by NanoBRET assay. The format is cell-based. On the technique in general: Bioluminescence resonance energy transfer reports proximity on the nanometre scale.

Series [7] can be described thus: Drug concentration in C57BL/6 mouse plasma at 20 mg/kg, ip measured after 30 mins by LC-MS/MS analysis. It is filed as ADME, organism-based.
The target of series [8] is T1, Serine/threonine-protein kinase 4. This is another data set of the same source.
Description: Displacement of K5 tracer from full length C-terminal NanoLuc fused human STK4 expressed in HEK293T cells incubated for 2 hrs by NanoBRET assay
Series [9] has as its target T2, Serine/threonine-protein kinase 3. The series is described as follows: Binding affinity to recombinant N-terminal His6-tagged human STK3 (18 to 311 residues) expressed in Escherichia coli assessed as dissociation constant by isothermal titration calorimetry. A general note: ITC needs no label: the signal is the heat of the interaction.
In series [10] the target is T4, Serine/threonine-protein kinase 4 (Homo sapiens) (UniProt Q13043).
T4 sequence (whole entry): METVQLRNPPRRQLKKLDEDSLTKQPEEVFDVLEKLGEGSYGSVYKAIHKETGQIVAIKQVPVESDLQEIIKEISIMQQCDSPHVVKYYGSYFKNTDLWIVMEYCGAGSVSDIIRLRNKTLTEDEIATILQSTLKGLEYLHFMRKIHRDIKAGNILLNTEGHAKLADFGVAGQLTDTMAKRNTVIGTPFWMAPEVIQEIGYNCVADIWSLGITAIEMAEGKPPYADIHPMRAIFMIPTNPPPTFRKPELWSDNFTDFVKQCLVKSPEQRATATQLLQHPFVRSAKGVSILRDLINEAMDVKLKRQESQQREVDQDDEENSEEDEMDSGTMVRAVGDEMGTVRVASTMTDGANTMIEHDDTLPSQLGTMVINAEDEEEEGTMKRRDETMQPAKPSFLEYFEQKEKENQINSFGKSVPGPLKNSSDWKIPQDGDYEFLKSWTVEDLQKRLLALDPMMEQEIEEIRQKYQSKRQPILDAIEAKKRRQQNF
Particulars: dose 20.0 µM.
Description: Inhibition of recombinant N-terminal His6-tagged human STK4 (43 to 431 residues) expressed in Escherichia coli assessed as melting temperature at 20 uM by thermal shift assay (Rvb = 55 degreeC)

Series [11] addresses T1, Serine/threonine-protein kinase 4. The series is described as follows: Binding affinity to recombinant N-terminal His6-tagged human STK4 (43 to 431 residues) expressed in Escherichia coli assessed as dissociation constant by isothermal titration calorimetry.
Series [12] has the same target. This is another data set of the same source.
Substrate in series [13]: Clc1cccc(-c2c[nH]c3ncnc(N4CCOCC4)c23)c1
Description: Inhibition of recombinant N-terminal His6-tagged human STK4 (43 to 431 residues) expressed in Escherichia coli using CSox-peptide as substrate preincubated for 15 mins followed by substrate addition measured every 2 mins upto 150 mins by microplate reader
Particulars: Homo sapiens; time 165.0 min.

Calls of active or inactive are those of the source. The rule behind the calls is not given here.

Leucine-rich repeat serine/threonine-protein kinase 2, sequence (Q5S007 whole entry, the tested form may be a part): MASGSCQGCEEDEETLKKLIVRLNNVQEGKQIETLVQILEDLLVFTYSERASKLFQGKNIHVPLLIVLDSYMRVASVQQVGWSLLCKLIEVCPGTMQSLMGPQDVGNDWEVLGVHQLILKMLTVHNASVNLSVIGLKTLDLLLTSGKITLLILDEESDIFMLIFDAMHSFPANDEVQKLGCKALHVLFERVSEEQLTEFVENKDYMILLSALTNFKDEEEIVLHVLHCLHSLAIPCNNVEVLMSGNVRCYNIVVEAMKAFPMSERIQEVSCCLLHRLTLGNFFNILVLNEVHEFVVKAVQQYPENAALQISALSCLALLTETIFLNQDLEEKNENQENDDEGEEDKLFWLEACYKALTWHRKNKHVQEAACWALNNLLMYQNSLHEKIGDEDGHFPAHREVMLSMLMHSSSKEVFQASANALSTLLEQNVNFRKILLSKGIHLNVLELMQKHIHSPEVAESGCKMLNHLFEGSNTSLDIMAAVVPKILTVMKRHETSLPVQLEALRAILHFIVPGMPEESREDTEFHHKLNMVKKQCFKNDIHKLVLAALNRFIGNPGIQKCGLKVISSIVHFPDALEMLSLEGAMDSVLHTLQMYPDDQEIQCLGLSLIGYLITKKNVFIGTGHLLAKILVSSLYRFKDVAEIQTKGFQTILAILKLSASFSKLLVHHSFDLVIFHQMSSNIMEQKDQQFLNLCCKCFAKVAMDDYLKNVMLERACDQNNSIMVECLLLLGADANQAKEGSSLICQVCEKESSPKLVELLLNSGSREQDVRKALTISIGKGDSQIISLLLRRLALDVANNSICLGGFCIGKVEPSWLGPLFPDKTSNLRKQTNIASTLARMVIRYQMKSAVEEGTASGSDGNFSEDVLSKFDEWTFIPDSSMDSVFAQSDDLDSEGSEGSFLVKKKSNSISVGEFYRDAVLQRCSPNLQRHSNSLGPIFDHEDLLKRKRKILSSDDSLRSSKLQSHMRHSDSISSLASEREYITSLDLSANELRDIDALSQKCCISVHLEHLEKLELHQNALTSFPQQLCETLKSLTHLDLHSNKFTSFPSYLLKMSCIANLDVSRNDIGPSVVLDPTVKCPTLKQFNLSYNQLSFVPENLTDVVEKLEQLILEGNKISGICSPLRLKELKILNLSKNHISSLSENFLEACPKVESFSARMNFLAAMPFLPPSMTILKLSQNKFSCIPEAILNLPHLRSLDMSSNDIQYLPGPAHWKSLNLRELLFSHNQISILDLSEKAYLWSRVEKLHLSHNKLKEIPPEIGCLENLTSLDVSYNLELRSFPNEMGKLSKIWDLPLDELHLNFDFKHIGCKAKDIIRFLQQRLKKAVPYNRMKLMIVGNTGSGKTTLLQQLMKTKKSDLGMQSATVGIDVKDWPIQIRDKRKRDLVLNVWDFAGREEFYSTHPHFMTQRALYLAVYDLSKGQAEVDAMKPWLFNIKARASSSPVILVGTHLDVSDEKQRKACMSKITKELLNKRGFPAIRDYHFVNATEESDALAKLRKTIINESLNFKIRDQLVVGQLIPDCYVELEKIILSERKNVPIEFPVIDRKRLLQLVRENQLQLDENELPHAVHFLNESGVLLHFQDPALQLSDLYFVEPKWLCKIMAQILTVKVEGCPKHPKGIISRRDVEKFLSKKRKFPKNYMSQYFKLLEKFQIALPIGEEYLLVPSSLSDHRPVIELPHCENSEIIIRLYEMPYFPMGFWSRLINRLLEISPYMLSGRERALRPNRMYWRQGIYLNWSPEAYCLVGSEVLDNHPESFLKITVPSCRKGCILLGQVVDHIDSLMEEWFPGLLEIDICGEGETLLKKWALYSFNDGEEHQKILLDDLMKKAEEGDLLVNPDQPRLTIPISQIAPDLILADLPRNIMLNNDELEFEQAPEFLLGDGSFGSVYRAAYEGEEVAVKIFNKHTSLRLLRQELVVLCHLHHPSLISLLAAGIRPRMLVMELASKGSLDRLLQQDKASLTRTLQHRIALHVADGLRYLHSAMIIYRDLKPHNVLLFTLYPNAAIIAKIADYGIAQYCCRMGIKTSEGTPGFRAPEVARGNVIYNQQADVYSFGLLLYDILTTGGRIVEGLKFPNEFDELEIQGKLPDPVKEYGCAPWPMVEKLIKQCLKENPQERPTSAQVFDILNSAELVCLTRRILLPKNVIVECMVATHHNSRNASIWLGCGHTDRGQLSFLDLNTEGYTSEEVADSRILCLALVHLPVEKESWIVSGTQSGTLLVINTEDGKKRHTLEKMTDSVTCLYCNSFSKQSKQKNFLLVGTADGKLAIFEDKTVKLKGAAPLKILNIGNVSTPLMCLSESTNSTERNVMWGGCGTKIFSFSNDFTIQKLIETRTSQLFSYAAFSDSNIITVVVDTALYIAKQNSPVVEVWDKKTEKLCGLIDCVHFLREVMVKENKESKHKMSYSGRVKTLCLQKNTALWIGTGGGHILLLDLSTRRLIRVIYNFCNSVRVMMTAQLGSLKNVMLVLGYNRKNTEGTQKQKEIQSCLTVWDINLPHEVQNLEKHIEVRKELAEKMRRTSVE

The term IC50 denotes the concentration at which inhibition is half-maximal. `c1ccc(-c2c[nH]c3ncnc(N4CCOCC4)c23)cc1`: the IC50 in series [1] came out at 183 nM; in [2], 197 nM.
What is called ΔTm is the shift of the melting midpoint relative to a reference. Regarding `Fc1cccc(-c2c[nH]c3ncnc(N4CCOCC4)c23)c1`, the ΔTm in series [3] was greater than 5.2 °C. Moreover, the IC50 in series [4] was 373 nM; in [2], 191 nM; in [6], 246 nM. For the same molecule, the inhibition result in series [5] was “Active”. This molecule also showed a concentration at 0.5 h in [7] greater than 1400 nM.
As for `CC1(N)CCN(c2ncnc3[nH]cc(-c4cccc(Cl)c4)c23)CC1`, in [2], half-maximal inhibition (IC50) required 278 nM. Moreover, the concentration at 0.5 h in [7] was greater than 1400 nM.
In [2], `Fc1ccccc1-c1c[nH]c2ncnc(N3CCOCC3)c12` displayed an IC50 of 558 nM.
`COc1ccccc1-c1c[nH]c2ncnc(N3CCOCC3)c12` registered an IC50 in [2] of 230 nM.
With `Clc1cccc(-c2n[nH]c3ncnc(N4CCOCC4)c23)c1`, the IC50 in [1] turned out to be 1610 nM; in series [2], 4800 nM.
Take `N#Cc1cccc(-c2c[nH]c3ncnc(N4CCOCC4)c23)c1`: the results for the half-maximal inhibitory concentration (IC50) in series [4] and in series [6] were 197 nM and 84 nM, respectively.
In [2], `CN(C)c1ncnc2[nH]cc(-c3cccc(Cl)c3)c12` gave an IC50 of 349 nM.
`Fc1ccc(-c2c[nH]c3ncnc(N4CCOCC4)c23)cc1` registered an IC50 in [2] of 766 nM. The same molecule gave a concentration at 0.5 h in series [7] greater than 1400 nM.
Molecule `CC1(O)CCN(c2ncnc3[nH]cc(-c4cccc(Cl)c4)c23)CC1` came in with a half-maximal inhibitory concentration (IC50) in series [2] of 189 nM.
In series [2], `Clc1cccc(-c2csc3ncnc(N4CCOCC4)c23)c1` displayed an IC50 greater than 10000 nM.
With `CC(CO)CN(C)c1ncnc2[nH]cc(-c3cccc(Cl)c3)c12` (stereo not given), the IC50 worked out at 38 nM in [1]; 289 nM in series [4]; 58 nM in series [2]; 444 nM in series [8]; 7140 nM in series [6]. In addition, in series [7], the concentration at 0.5 h was greater than 1400 nM.
Take `Clc1cccc(-c2coc3ncnc(N4CCOCC4)c23)c1`: the IC50 in series [2] was greater than 10000 nM.
Regarding `CCN(CCO)c1ncnc2[nH]cc(-c3cccc(Cl)c3)c12`, in series [2], inhibition was half-maximal at 226 nM (IC50).
Take `Cc1ccccc1-c1c[nH]c2ncnc(N3CCOCC3)c12`: the half-maximal inhibitory concentration (IC50) in series [1] turned out to be 2400 nM; in series [2] it was 6900 nM. Moreover, the inhibition result in series [5] is “inactive”.
In general, Kd refers to the equilibrium constant for the complex coming apart. For the molecule `Clc1cccc(-c2c[nH]c3nccc(N4CCOCC4)c23)c1`, the Kd in [9] turned out to be 48 nM; in series [11], 158 nM. Further, the IC50 in [1] turned out to be 66 nM; in series [4], 373 nM; in [2], 119 nM; in series [8], 192 nM; in [6], 121 nM. The inhibition entry in series [5] was “Active”. Also, in [10], the Tm is 63.6 °C. The same molecule yielded a concentration at 0.5 h in series [7] greater than 1400 nM.
`Cc1ccc(-c2c[nH]c3ncnc(N4CCOCC4)c23)cc1` returned an IC50 in [2] of 2020 nM. For the same molecule, the inhibition result in [5] was “inactive”.
In the case of `CN1C(=O)c2sccc2N(C)c2nc(Nc3ccc(S(N)(=O)=O)cc3)ncc21`, inhibition in [8] was half-maximal at 1040 nM (IC50).
Turning to `OCCCNc1ncnc2[nH]cc(-c3cccc(Cl)c3)c12`, the IC50 in series [4] amounted to 668 nM; in series [2], 173 nM; in [6], 2490 nM. Further, in [7], the concentration at 0.5 h is greater than 1400 nM.
In [2], `Clc1cccc(-c2c[nH]c3ncnc(NCC4CC4)c23)c1` registered an IC50 of 213 nM.
On to `COc1cccc(-c2c[nH]c3ncnc(N4CCOCC4)c23)c1`, for which the IC50 in series [2] stood at 766 nM.
Turning to `CN(CCO)c1ncnc2[nH]cc(-c3cccc(Cl)c3)c12`, the IC50 stood at 79 nM in series [1]; 631 nM in series [4]; 117 nM in series [2]; 406 nM in [8]; 1520 nM in [6]. In [7], this molecule displayed a concentration at 0.5 h greater than 1400 nM.
`Cc1cccc(-c2c[nH]c3ncnc(N4CCOCC4)c23)c1`: the IC50 in series [4] came out at 434 nM; in series [2], 121 nM; in series [6], 127 nM. The molecule further yielded a concentration at 0.5 h in series [7] greater than 1400 nM.
On to `c1nc(N2CCOCC2)c2c(-c3ccoc3)c[nH]c2n1`, for which 986 nM corresponded to half-maximal inhibition in [2] (IC50).
Broadly, the Ki is the dissociation constant of the complex between target and ligand, obtained from inhibition or displacement. Turning to `Clc1cccc(-c2c[nH]c3ncnc(N4CCOCC4)c23)c1`, the results for the concentration for half-maximal inhibition (IC50) in series [1], in [8] and in [6] were 35 nM, 320 nM and 264 nM, respectively. In series [10], the Tm came out at 63.8 °C. The Kd in series [11] was found to be 147 nM. For the same molecule, the Ki in series [12] stood at 50 nM. The molecule further gave a concentration at 0.5 h in series [7] greater than 1400 nM.
Turning to `Clc1cccc(-c2c[nH]c3ccnc(N4CCOCC4)c23)c1`, the IC50 in [2] was greater than 10000 nM.
Turning to `CNC1CCN(c2ncnc3[nH]cc(-c4cccc(Cl)c4)c23)CC1`, in [6], the IC50 is 3540 nM. In series [7], this molecule gave a concentration at 0.5 h greater than 1400 nM.
In series [2], `c1coc(-c2c[nH]c3ncnc(N4CCOCC4)c23)c1` yielded an IC50 of 487 nM.
For the molecule `Clc1cccc(-c2c[nH]c3ncnc(N4CCCCC4)c23)c1`, the ΔTm in series [3] was greater than 5.2 °C. The IC50 in series [4] stood at 1100 nM; in [2], 167 nM; in series [6], 1140 nM. Besides, the concentration at 0.5 h in series [7] is greater than 1400 nM.
`c1csc(-c2c[nH]c3ncnc(N4CCOCC4)c23)c1` had an IC50 in series [2] of 267 nM.

B1: Serine/threonine-protein kinase 4 (Homo sapiens), Q13043 (protein)
chain: METVQLRNPPRRQLKKLDEDSLTKQPEEVFDVLEKLGEGSYGSVYKAIHKETGQIVAIKQVPVESDLQEIIKEISIMQQCDSPHVVKYYGSYFKNTDLWIVMEYCGAGSVSDIIRLRNKTLTEDEIATILQSTLKGLEYLHFMRKIHRDIKAGNILLNTEGHAKLADFGVAGQLTDTMAKRNTVIGTPFWMAPEVIQEIGYNCVADIWSLGITAIEMAEGKPPYADIHPMRAIFMIPTNPPPTFRKPELWSDNFTDFVKQCLVKSPEQRATATQLLQHPFVRSAKGVSILRDLINEAMDVKLKRQESQQREVDQDDEENSEEDEMDSGTMVRAVGDEMGTVRVASTMTDGANTMIEHDDTLPSQLGTMVINAEDEEEEGTMKRRDETMQPAKPSFLEYFEQKEKENQINSFGKSVPGPLKNSSDWKIPQDGDYEFLKSWTVEDLQKRLLALDPMMEQEIEEIRQKYQSKRQPILDAIEAKKRRQQNF
As usually defined, the Km is the substrate concentration at which the rate is half of its maximum. On to B1, for which, in series [13], the Km amounted to 140 µM.
